Reference: patent publication US20040204577A1, “Novel peptide-forming enzyme gene” (Ajinomoto Co., Inc., priority 2003, published 2004)
Where a SMILES comes first, the peptide text is derived from it.

Experiments:
[1] = tested on: SP-Sepharose HP fraction enzyme; test: Production of L-alanyl-L-glutamine using enzyme fraction of Sphingobacterium sp.; format: biochemical; conditions: 10 μl fraction (about 27 U/ml) + 90 μl buffer with 111 mM L-alanine methyl ester hydrochloride, 222 mM L-glutamine; pH 9.0, 25° C., 120 minutes
Method: The following procedure after centrifugation was carried out either on ice or at 4° C. Sphingobacterium sp. strain FERM BP-8124 (Depositary institution: the independent administrative corporation, National Institute of Advanced Industrial Science and Technology, International Patent Organism Depositary, Address of depositary institution: Chuo Dai-6, 1-1 Higashi 1-Chome, Tsukuba-shi, Ibaraki-ken, Japan, International deposit date: Jul. 22, 2002) was cultured in the same manner as Example 21, and the microbial cells were collected by centrifugation (10,000 rpm, 15 minutes). After washing 2 g of microbial cells with 20 mM Tris-HCl buffer (pH 7.6), they were suspended in 8 ml of the same buffer and subjected to ultrasonic crushing treatment for 45 minutes at 195 W. This ultrasonic crushed suspension was then centrifuged (10,000 rpm, 30 minutes) to remove the crushed cell fragments and obtain a supernatant. This supernatant was dialyzed overnight against 20 mM Tris-HCl buffer (pH 7.6) followed by removal of the insoluble fraction by ultracentrifugation (50,000 rpm, 30 minutes) to obtain a soluble fraction in the form of the supernatant liquid. The resulting soluble fraction was applied to a Q-Sepharose HP column (manufactured by Amersham) pre-equilibrated with Tris-HCl buffer (pH 7.6), and the active fraction was collected from the non-adsorbed fraction. […]

[2] = tested on: microbial cells of Sphingobacterium sp. strain FERM BP-8124; test: Production of L-alanyl-L-glutamine using microbial cells of Sphingobacterium sp.; format: cell-based; conditions: 0.1 mL cell suspension (100 g/L) + 0.1 mL buffer with 200 mM L-alanine methyl ester hydrochloride, 400 mM L-glutamine; pH 9.0, 25° C., 120 minutes
Method: A 50 ml medium (pH 7.0) containing 5 g of glucose, 5 g of ammonium sulfate, 1 g of monopotassium phosphate, 3 g of dipotassium phosphate, 0.5 g of magnesium sulfate, 10 g of yeast extract, and 10 g of peptone in 1 L was transferred to a 500 mL Sakaguchi flask and sterilized at 11 5° C. for 15 minutes for culturing Sphingobacterium sp. strain FERM BP-8124 (Depositary institution: the independent administrative corporation, National Institute of Advanced Industrial Science and Technology, International Patent Organism Depositary, Address of depositary institution: Chuo Dai-6, 1-1 Higashi 1-Chome, Tsukuba-shi, Ibaraki-ken, Japan, International deposit date: Jul. 22, 2002). This medium was then inoculated with one loopful cells of Sphingobacterium sp. strain FERM BP-8124 (Depositary institution: the independent administrative corporation, National Institute of Advanced Industrial Science and Technology, International Patent Organism Depositary, Address of depositary institution: Chuo Dai-6, 1-1 Higashi 1-Chome, Tsukuba-shi, Ibaraki-ken, Japan, International deposit date: Jul. 22, 2002) cultured at 30° C. for 24 hours in a slant agar medium (agar: 20 g/L, pH 7.0) containing 5 g of glucose, 10 g of yeast extract, 10 g of peptone and 5 g of NaCl in 1 L, followed by shake culturing at 30° C. for 20 hours and 120 strokes/minute. […]

L-alanyl-L-glutamine formed, enzyme-added lot [1]: 73 mM
SMILES: C[C@H](N)C(=O)N[C@@H](CCC(N)=O)C(=O)O [L-Ala-L-Gln, L-alanyl-L-glutamine] (H-Ala-Gln-OH)
L-alanyl-L-glutamine formed [2]: 62 mM
